Results: paper PMC3948918 (PLoS ONE, 2014)
Read-outs that look alike come from different tables or passages of the source. Numbered stars: 1 amine (or outer) side, 2 acyl side, 3 side chain; on linkers, the order of the positions; unused ones are H or OH. Bridge positions count the residues as written; N and C are the ends. Square brackets hold non-standard residues; d marks the D form. Peptide text beside a SMILES is read from it. Adda = CO[C@@H](Cc1ccccc1)[C@@H](C)/C=C(C)/C=C/[C@H](N[*:1])[C@H](C)C(=O)[*:2]; dAsp(3S-Me) = C[C@H](C(=O)[*:3])[C@@H](N[*:1])C(=O)[*:2]; d(γGlu) = O=C(O)[C@@H](CCC(=O)[*:2])N[*:1]; NMeDha = C=C(NC)C(=O)O

Key:
[1] = tested on: HeLa Control cells; settings: cited from earlier work
[2] = tested on: OATP1B1- and OATP1B3-expressing HeLa or RKO cell lines
[3] = tested on: PP2A; settings: cited from earlier work
[4] = tested on: OATP1B3-expressing HeLa cells; settings: cited from earlier work
[5] = tested on: OATP1B1-expressing HeLa cells; settings: read-out: IC50 HeLa B1; cited from earlier work
[6] = tested on: HeLa Control cells; settings: 24 h
[7] = tested on: OATP1B3-expressing HeLa cells; settings: for IC50: human
[8] = tested on: OATP1B1; test: in vitro; settings: human

| Compound | IC50 [1] [nM] | toxicity in the present assay compared with 1 (times lower) [2] | transporter selectivity (in words) [2] | IC50 ([2]; read-out: IC50 values (potency grouping)) [nM] | PP2A inhibition compared with 1 [3] | Ratio IC50 B1/B3 HeLa [4] | IC50 ([4]; read-out: IC50 HeLa B3) [nM] | IC50 [5] [nM] | IC50 [6] [nM] | Ratio IC50 B1/B3 HeLa [7] | IC50 [7] [nM] | IC50 values (potency grouping) [2] | IC50 [8] [nM] |
| --- | --- | --- | --- | --- | --- | --- | --- | --- | --- | --- | --- | --- | --- |
| C=C1C(=O)N[C@H](C)C(=O)N[C@@H](CCCNC(=N)N)C(=O)N[C@@H](C(=O)O)[C@H](C)C(=O)N[C@@H](CCCNC(=N)N)C(=O)N[C@@H](/C=C/C(C)=C/[C@H](C)[C@H](Cc2ccccc2)OC)[C@H](C)C(=O)N[C@@H](C(=O)O)CCC(=O)N1C [compound 10, RR] (R[Adda][d(γGlu)][NMeDha][dA]R[dAsp(3S-Me)]-OH; lactam N-7) | > 10000 | about 500 times | most OATP1B3 selective | > 100 | about twenty times weaker | 6.6 | 580 | 3800 |  |  |  |  |  |
| C/C=C1/NC(=O)CC[C@H](C(=O)O)NC(=O)[C@@H](C)[C@H](/C=C/C(C)=C/[C@H](C)[C@H](Cc2ccccc2)OC)NC(=O)[C@H](Cc2ccc(O)cc2)NC(=O)C[C@H](C(=O)O)NC(=O)[C@H](CCc2ccc(O)cc2)NC(=O)[C@@H](C)NC1=O [compound 18, [D-Asp^3,(E)-Dhb^7]MC-HtyY] |  |  | most OATP1B3 selective |  |  |  |  |  | > 10 | 6.6 | 0.078 | sub-nanomolar | 0.515 |
| C/C=C1/NC(=O)CC[C@H](C(=O)O)NC(=O)[C@@H](C)[C@H](/C=C/C(C)=C/[C@H](C)[C@H](Cc2ccccc2)OC)NC(=O)[C@H](CCc2ccc(O)cc2)NC(=O)C[C@H](C(=O)O)NC(=O)[C@H](CCc2ccc(O)cc2)NC(=O)[C@@H](C)NC1=O [compound 19, [D-Asp^3,(E)-Dhb^7]MC-HtyHty] |  |  |  |  |  |  |  |  | > 10 | 2.2 | 0.18 | sub-nanomolar | 0.39 |
